Source: patent US5413990A, “N-terminus modified analogs of LHRH” (Tap Pharmaceuticals Inc., priority 1993, dated 1995)
Numbered stars: 1 amine (or outer) side, 2 acyl side, 3 side chain; on linkers, the order of the positions; unused ones are H or OH. Square brackets hold non-standard residues; d marks the D form. Peptide text beside a SMILES is read from it. * marks the point of attachment. X3 = NC(=O)N[C@H](Cc1ccc2ccccc2c1)C(=O)*; dPhe(4-Cl) = N[C@H](Cc1ccc(Cl)cc1)C(=O)O; NH(2-(2-pyridyl)ethyl) = c1ccc(CCN*)nc1; d2Nal = N[C@H](Cc1ccc2ccccc2c1)C(=O)O; Lys(iPr) = CC(C)NCCCC[C@H](N)C(=O)O; NMeY = CN[C@@H](Cc1ccc(O)cc1)C(=O)O; Cyclohexylacetyl = O=C(CC1CCCCC1)*; Cyclopropanecarbonyl = O=C(C1CC1)*; Hydrocinnamoyl = O=C(CCc1ccccc1)*; dCit = NC(=O)NCCC[C@@H](N)C(=O)O; d3Pal = N[C@H](Cc1cccnc1)C(=O)O; NH(3-picolyl) = c1cncc(CN*)c1; Nicotinoyl = O=C(c1cccnc1)*; Methoxyacetyl = COCC(=O)*; Isobutyryl = CC(C)C(=O)*; Morpholide = C1CN(*)CCO1; CO = O=C([*:1])[*:2]; Propionyl = CCC(=O)*; Bz = O=C(c1ccccc1)*; Glycolyl = O=C(CO)*; For = O=C*

What follows are compounds tested against T1, LHRH (Rattus norvegicus, UniProt P30969) (assay: in vitro test for LHRH antagonist potency (pA2)). Conditions: negative logarithm of the antagonist concentration required to shift the response curve produced by the agonist leuprolide to two-fold higher concentration.
T1 construct: evaluated in an in vitro test for LHRH antagonist potency (pA2); endogenous in cells; host or cells: pituitary cells (rat, from my own knowledge of the cited method)
T1 sequence (P30969 1-327): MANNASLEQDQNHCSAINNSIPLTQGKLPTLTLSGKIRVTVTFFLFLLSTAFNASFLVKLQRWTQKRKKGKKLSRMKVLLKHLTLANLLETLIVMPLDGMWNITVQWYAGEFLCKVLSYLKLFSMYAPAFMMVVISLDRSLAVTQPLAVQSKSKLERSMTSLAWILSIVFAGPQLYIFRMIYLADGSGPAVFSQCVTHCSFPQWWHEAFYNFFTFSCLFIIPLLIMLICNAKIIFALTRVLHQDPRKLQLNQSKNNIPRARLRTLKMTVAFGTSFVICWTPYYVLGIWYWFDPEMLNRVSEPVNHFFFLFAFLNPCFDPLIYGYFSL
Assay type: cell-based
Protocol: Representative compounds of the present invention were evaluated in an in vitro test for LHRH antagonist potency (pA2). The test employed the method detailed in F. Haviv, et al. J. Med. Chem., 32:2340-2344 (1989). The values of pA2 are the negative logarithms of the concentration of the particular antagonist test compound required to shift the response curve produced by the agonist leuprolide to two-fold higher concentration. (Leuprolide is the LHRH agonist having the structure 5-oxo-Pro^1 -His^2 -Trp^3 -Ser^4 -Tyr^5 -D-Leu^6 -Leu^7 -Arg^8 -Pro^9 -NHEt and is disclosed and claimed in U.S. Pat. No. 4,005,063.) Typically pA2 values of 9.5 or greater are indicative of good LHRH antagonist potency, with values of 10.0 or greater being preferred.

| SMILES | Kb [nM] |
| --- | --- |
| CC(C)C[C@H](NC(=O)[C@@H](CCCCNC(=O)c1cccnc1)NC(=O)[C@H](Cc1ccc(O)cc1)N(C)C(=O)[C@H](CO)NC(=O)[C@@H](Cc1cccnc1)NC(=O)[C@@H](Cc1ccc(Cl)cc1)NC(=O)[C@@H](Cc1ccc2ccccc2c1)NC(=O)C1CC1)C(=O)N[C@@H](CCCCNC(C)C)C(=O)N1CCC[C@H]1C(=O)N[C@H](C)C(N)=O [Example 2f, N-Cyclopropylcarbonyl-D2Nal-D4ClPhe- D3Pal-Ser-NMeTyr-DLys(N-epsilon-Nicotinyl)-Leu-Lys(N-epsilon-Isopropyl)-Pro-DAlaNH 2] (Cyclopropanecarbonyl-[d2Nal][dPhe(4-Cl)][d3Pal]S[NMeY][dK](Nicotinoyl)L[Lys(iPr)]P[dA]-NH2) | 0.00355 |
| CCC(=O)N[C@H](Cc1ccc2ccccc2c1)C(=O)N[C@H](Cc1ccc(Cl)cc1)C(=O)N[C@H](Cc1cccnc1)C(=O)N[C@@H](CO)C(=O)N(C)[C@@H](Cc1ccc(O)cc1)C(=O)N[C@H](CCCCNC(=O)c1cccnc1)C(=O)N[C@@H](CC(C)C)C(=O)N[C@@H](CCCCNC(C)C)C(=O)N1CCC[C@H]1C(=O)N[C@H](C)C(N)=O [Example 2a, N-Propionyl-D2Nal-D4ClPhe-D3Pal-Ser-NMeTyr-DLys(N-epsilon-Nicotinyl)-Leu-Lys(N-epsilon-Isopropyl)-Pro-DAlaNH 2] (Propionyl-[d2Nal][dPhe(4-Cl)][d3Pal]S[NMeY][dK](Nicotinoyl)L[Lys(iPr)]P[dA]-NH2) | 0.00501 |
| CC(C)C[C@H](NC(=O)[C@@H](CCCNC(N)=O)NC(=O)[C@H](Cc1ccc(O)cc1)N(C)C(=O)[C@H](CO)NC(=O)[C@@H](Cc1cccnc1)NC(=O)[C@@H](Cc1ccc(Cl)cc1)NC(=O)[C@@H](Cc1ccc2ccccc2c1)NC(=O)N1CCOCC1)C(=O)N[C@@H](CCCNC(=N)N)C(=O)N1CCC[C@H]1C(=O)N[C@H](C)C(N)=O [Example 8b, N-(Morpholinocarbonyl)-D2Nal-D4ClPhe-D 3Pal- Ser-NMeTyr-DCit-Leu-Arg-Pro-DAlaNH2] ({Morpholide-CO}-[d2Nal][dPhe(4-Cl)][d3Pal]S[NMeY][dCit]LRP[dA]-NH2) | 0.02 |
| CC(C)C[C@H](NC(=O)[C@@H](CCCNC(N)=O)NC(=O)[C@H](Cc1ccc(O)cc1)N(C)C(=O)[C@H](CO)NC(=O)[C@@H](Cc1cccnc1)NC(=O)[C@@H](Cc1ccc(Cl)cc1)NC(=O)[C@@H](Cc1ccc2ccccc2c1)NC(N)=O)C(=O)N[C@@H](CCCNC(=N)N)C(=O)N1CCC[C@H]1C(=O)N[C@H](C)C(N)=O [Example 7, N:(Aminocarbonyl)-D2Nal-D4ClPhe-D3 Pal-Ser- NMeTyr-DCit-Leu-Arg-ProDAIaNH2] (X3-[dPhe(4-Cl)][d3Pal]S[NMeY][dCit]LRP[dA]-NH2) | 0.00603 |
| CC(C)C[C@H](NC(=O)[C@@H](CCCCNC(=O)c1cccnc1)NC(=O)[C@H](Cc1ccc(O)cc1)N(C)C(=O)[C@H](CO)NC(=O)[C@@H](Cc1cccnc1)NC(=O)[C@@H](Cc1ccc(Cl)cc1)NC(=O)[C@@H](Cc1ccc2ccccc2c1)NC=O)C(=O)N[C@@H](CCCCNC(C)C)C(=O)N1CCC[C@H]1C(=O)N[C@H](C)C(N)=O [Example 1, N-Formyl-D2Nal-D4ClPhe-D3Pal-Ser-NMeTyr-DLys(Nicotinyl)-Leu-Lys(N-epsilon-lsopropyl)-Pro-DAlaNH2] (For-[d2Nal][dPhe(4-Cl)][d3Pal]S[NMeY][dK](Nicotinoyl)L[Lys(iPr)]P[dA]-NH2) | 0.00158 |
| CC(C)C[C@H](NC(=O)[C@@H](CCCCNC(=O)c1cccnc1)NC(=O)[C@H](Cc1ccc(O)cc1)N(C)C(=O)[C@H](CO)NC(=O)[C@@H](Cc1cccnc1)NC(=O)[C@@H](Cc1ccc(Cl)cc1)NC(=O)[C@@H](Cc1ccc2ccccc2c1)NC(=O)CC1CCCCC1)C(=O)N[C@@H](CCCCNC(C)C)C(=O)N1CCC[C@H]1C(=O)N[C@H](C)C(N)=O [Example 2i, N-Cyclohexylacetyl-D2Nal-D4ClPhe-D3Pal-Ser-NMeTyr-DLys(N-epsilon-Nicotinyl)-Leu-Lys(N-epsilon-Isopropyl)-Pro-DAlaNH 2] (Cyclohexylacetyl-[d2Nal][dPhe(4-Cl)][d3Pal]S[NMeY][dK](Nicotinoyl)L[Lys(iPr)]P[dA]-NH2) | 1.58 |
| CC(C)C[C@H](NC(=O)[C@@H](CCCNC(N)=O)NC(=O)[C@H](Cc1ccc(O)cc1)N(C)C(=O)[C@H](CO)NC(=O)[C@@H](Cc1cccnc1)NC(=O)[C@@H](Cc1ccc(Cl)cc1)NC(=O)[C@@H](Cc1ccc2ccccc2c1)NC(=O)CO)C(=O)N[C@@H](CCCNC(=N)N)C(=O)N1CCC[C@H]1C(=O)N[C@H](C)C(N)=O [Example 4, N-Glycolyl-D2Nal-D4ClPhe-D3Pal-Ser-NMeTyr-DCit-Leu-Arg-Pro-DAlaNH2] (Glycolyl-[d2Nal][dPhe(4-Cl)][d3Pal]S[NMeY][dCit]LRP[dA]-NH2) | 0.00661 |
| CC(C)C[C@H](NC(=O)[C@@H](CCCCNC(=O)c1cccnc1)NC(=O)[C@H](Cc1ccc(O)cc1)N(C)C(=O)[C@H](CO)NC(=O)[C@@H](Cc1cccnc1)NC(=O)[C@@H](Cc1ccc(Cl)cc1)NC(=O)[C@@H](Cc1ccc2ccccc2c1)NC(=O)C(C)C)C(=O)N[C@@H](CCCCNC(C)C)C(=O)N1CCC[C@H]1C(=O)N[C@H](C)C(N)=O [Example 2c, N-Isobutyryl-D2Nal-D4ClPhe-D3Pal- Ser-NMeTyr-DLys(N-epsilon-Nicotinyl)-Leu-Lys(N-epsilon-Isopropyl)-Pro-DAlaNH2] (Isobutyryl-[d2Nal][dPhe(4-Cl)][d3Pal]S[NMeY][dK](Nicotinoyl)L[Lys(iPr)]P[dA]-NH2) | 0.0178 |
| COCC(=O)N[C@H](Cc1ccc2ccccc2c1)C(=O)N[C@H](Cc1ccc(Cl)cc1)C(=O)N[C@H](Cc1cccnc1)C(=O)N[C@@H](CO)C(=O)N(C)[C@@H](Cc1ccc(O)cc1)C(=O)N[C@H](CCCCNC(=O)c1cccnc1)C(=O)N[C@@H](CC(C)C)C(=O)N[C@@H](CCCCNC(C)C)C(=O)N1CCC[C@H]1C(=O)N[C@H](C)C(N)=O [Example 2d, N-Methoxyacetyl-D2Nal-D4ClPhe-D3Pal-Ser-NMeTyr-DLys(N-epsilon-Nicotinyl)-Leu-Lys(N-epsilon-Isopropyl)-Pro-DAlaNH 2] (Methoxyacetyl-[d2Nal][dPhe(4-Cl)][d3Pal]S[NMeY][dK](Nicotinoyl)L[Lys(iPr)]P[dA]-NH2) | 0.00724 |
| CC(C)C[C@H](NC(=O)[C@@H](CCCNC(N)=O)NC(=O)[C@H](Cc1ccc(O)cc1)N(C)C(=O)[C@H](CO)NC(=O)[C@@H](Cc1cccnc1)NC(=O)[C@@H](Cc1ccc(Cl)cc1)NC(=O)[C@@H](Cc1ccc2ccccc2c1)NC(=O)NCCc1ccccn1)C(=O)N[C@@H](CCCNC(=N)N)C(=O)N1CCC[C@H]1C(=O)N[C@H](C)C(N)=O [Example 8g, N-(2-Pyridylethylaminocarbonyl)-D2Nal-D4ClPhe-D3Pal-Ser-NMeTyr-DCit-Leu-Arg-Pro-DAlaNH2] ({NH(2-(2-pyridyl)ethyl)-CO}-[d2Nal][dPhe(4-Cl)][d3Pal]S[NMeY][dCit]LRP[dA]-NH2) | 0.0178 |
| CC(C)C[C@H](NC(=O)[C@@H](CCCCNC(=O)c1cccnc1)NC(=O)[C@H](Cc1ccc(O)cc1)N(C)C(=O)[C@H](CO)NC(=O)[C@@H](Cc1cccnc1)NC(=O)[C@@H](Cc1ccc(Cl)cc1)NC(=O)[C@@H](Cc1ccc2ccccc2c1)NC(=O)c1ccccc1)C(=O)N[C@@H](CCCCNC(C)C)C(=O)N1CCC[C@H]1C(=O)N[C@H](C)C(N)=O [Example 2j, N-Benzoyl-D2Nal-D4ClPhe-D3Pal-Ser-NMeTyr-DLys(N-epsilon-Nicotinyl)-Leu-Lys(N-epsilon-Isopropyl)-Pro-DAlaNH2] (Bz-[d2Nal][dPhe(4-Cl)][d3Pal]S[NMeY][dK](Nicotinoyl)L[Lys(iPr)]P[dA]-NH2) | 0.0501 |
| CC(C)C[C@H](NC(=O)[C@@H](CCCNC(N)=O)NC(=O)[C@H](Cc1ccc(O)cc1)N(C)C(=O)[C@H](CO)NC(=O)[C@@H](Cc1cccnc1)NC(=O)[C@@H](Cc1ccc(Cl)cc1)NC(=O)[C@@H](Cc1ccc2ccccc2c1)NC(=O)NCc1cccnc1)C(=O)N[C@@H](CCCNC(=N)N)C(=O)N1CCC[C@H]1C(=O)N[C@H](C)C(N)=O [Example 8f, N-(3-Pyridyhnethylaminocarbonyl)-D2Nal-D4ClPhe-D3Pal-Ser-NMeTyr-DCit-Leu-Arg-Pro-DAlaNH2] ({NH(3-picolyl)-CO}-[d2Nal][dPhe(4-Cl)][d3Pal]S[NMeY][dCit]LRP[dA]-NH2) | 0.0363 |
| CC(C)C[C@H](NC(=O)[C@@H](CCCCNC(=O)c1cccnc1)NC(=O)[C@H](Cc1ccc(O)cc1)N(C)C(=O)[C@H](CO)NC(=O)[C@@H](Cc1cccnc1)NC(=O)[C@@H](Cc1ccc(Cl)cc1)NC(=O)[C@@H](Cc1ccc2ccccc2c1)NC(=O)CCc1ccccc1)C(=O)N[C@@H](CCCCNC(C)C)C(=O)N1CCC[C@H]1C(=O)N[C@H](C)C(N)=O [Example 2l, N-3-Phenylpropionyl-D2Nal-D4ClPhe-D3Pal-Ser-NMeTyr-DLys(N-epsilon-Nicotinyl)-Leu-Lys(N-epsilon-Isopropyl)-Pro-DAlaNH 2] (Hydrocinnamoyl-[d2Nal][dPhe(4-Cl)][d3Pal]S[NMeY][dK](Nicotinoyl)L[Lys(iPr)]P[dA]-NH2) | 0.0126 |
